Results as given in the NIST ThermoML archive (doi:10.1021/je050520f).
Numbers after ± are expanded uncertainties.

Columns and labels:
[1] = 101.33 kPa, Liquid
[2] = refractive index (Na D-line) (dimensionless); settings: 101.33 kPa, Liquid

Row | SMILES | mass density ([1]; 298.15 K) [kg/m3] | refractive index ([2]; 298.15 K, Abbe refractometer) | refractive index ([2]; 293.15 K, Abbe refractometer) | further results
1 | NC1CCCCC1 [cyclohexylamine] |  |  |  | mass density ([1]; 303.15 K): 858.2 ± 0.2 kg/m3; refractive index ([2]; 288.15 K, Abbe refractometer): 1.4624 ± 0.0005
2 | CCCc1ccccc1 [propylbenzene] | 860.79 ± 0.28 | 1.4901 ± 0.0006 |  | 
3 | Cc1ccccc1 [toluene] |  |  | 1.496 ± 0.0006 | mass density ([1]; 293.15 K): 866.78 ± 0.19 kg/m3
4 | O [water] |  |  | 1.3336 ± 0.0005 | 

Now from value to compound, other results behind:

Row | mass density ([1]; 298.15 K) [kg/m3] | refractive index ([2]; 298.15 K, Abbe refractometer) | SMILES | refractive index ([2]; 293.15 K, Abbe refractometer) | further results
5 | 679.43 ± 0.36 | 1.3853 ± 0.0003 | CCCCCCC [heptane] |  | 
6 | 698.49 ± 0.31 |  | CCCCCCCC [octane] |  | refractive index ([2]; 298.15 K): 1.3946 ± 0.0007
